The results in this text go back to US20250288558A1, “THERAPEUTIC FOR SPINAL CORD INJURY TO INDUCE HYPOTHERMIA” (The Trustees of Indiana University, priority 2024, published 2025).

Experiment [1] has as its system mice with moderate T9 contusive SCI. Conditions: weeks 3-6 post-injury, n=10, p<0.05. From the text: Thus, Rotarod was further performed to assess motor coordination, balance, and motor learning specifically post-injury.
Rotarod test: Rotorod is used to assay the hindlimb function of the animal. The animal was put on a rotated device. It consisted of a metal frame with a motorized, rotating assembly of rods. Animals were allowed to remain stationary. […] If animal skilled, it can remain on the device at this speed for extra 30 sec until the 2-min test period elapsed. Normally, a trial was ended if the animal fell completely off the rod or gripped the rod and spun around without attempting to walk on the rod. Mean duration on the rod was recorded.

Experiment [2] shares this test system. Conditions: n=10; for foot fall rate: Dex+SCI. The text has this: In addition to Rotarod test, Grid walk test further was ran twice at […] post-injury to assess hindlimb movements involved in sensorimotor functions, such as precise stepping, coordination and accurate placement of the paw. A one-foot drop error was counted when the hindlimb paw was entirely dropping through the grid with all toes and heel below the grid surface.
Grid-walking: The grid-walking test assesses the ability of a mouse to place its paws on the rungs of a grid accurately during spontaneous exploration. An elevated metal rectangle grid (12×36 inch2 with each grid cell 0.5×0.5 inch2) and 16 inches above a table top was used for the hindlimb drop error test. Each mouse was placed in the center of the grid for 3 min. A one-foot drop error was counted when the hindlimb paw was entirely dropping through the grid with all toes and heel below the grid surface. The total number of foot drop errors and total number of steps were recorded by video. Two observers who were blinded to the experiment analyzed the video and counted the steps. The grid-walking test was performed on the day before surgery and on days 21 and 35 post-SCI. Only those mice with consistent plantar stepping (BMS≥5) were tested on the grid.

In experiment [3] the test system is spinal cord coronal sections of SCI mice. The note with it: female, n=3. How it is done: We first measured the lesion size and spared white matter using cresyl violet and cosin staining.
Tissue Processing: All the animals were deeply anesthetized with Avertin and then perfused transcardially with cold saline, followed by a fixative containing 4% paraformaldehyde (PFA) in PBS. The spinal cord was removed, post-fixed overnight in PFA, and cryoprotected for 48 hours in 30% sucrose. Serial 30 μm thick coronal sections were cut using a cryostat (Leica CM 1950), mounted on slides and stored at −20° C. The sections were then processed for histopathological analysis.
Cresyl violet and cosin staining: A set of slides were first removed from the freezer and allowed to air dry for a minimum of 60 minutes at room temperature. Subsequently, the sections were treated with two 5-minute rinses in 10 mM PBS, followed by a 1-minute rinse in ddH2O. Next, slides were immersed for 20 minutes in Nissl stain, followed by two 5-minute rinses in ddH2O. Subsequently, slides were sequentially immersed in 90% ethanol (3 minutes), 95% ethanol (3 minutes), two changes of 100% ethanol (3 minutes each), and finally, three changes of 100% xylene (3 minutes each). Lastly, slides were mounted using Permount.

For another experiment, the system named is GFAP. The note with it: epicenter. The method, then: Immunofluorescent Staining: Immunofluorescent staining was carried out according to our previous reports. In brief, sections on the slides were rinsed in PBS 3 times (5 minutes each) and incubated in blocking buffer (0.1% Triton X-100, 1% bovine serum albumin, and 5% normal serum in PBS) for 1 hour at room temperature. Then, primary antibodies were added to blocking buffer and incubated with sections overnight at 4° C. After 3 washes with PBS (5 minutes each), sections were incubated with the secondary antibody for 1 hour at room temperature and then treated with 4′,6-Diamidino-2-phenylindole (DAPI) for 2 minutes. Finally, sections were washed 3 times with PBS (5 minutes each), dried, and mounted using Fluoromount G (Southern Biotech, Birmingham, AL, USA). Primary antibodies and their final concentrations were as follows: NeuN antibody (1:500, chicken, Abcam, ab134014), SMI31 antibody (1:1000, mouse, Millipore, NE1022), and GFAP antibody (1:1000, mouse, Sigma, G3893).

Experiment [4] concerns mice with contusive T9 moderate SCI (IH). Conditions: Dex 100 μg/kg one hour post-trauma, IH model, ambient 24.5° C. How it is done:
Contusive spinal cord injury: Adult female C57BL/6 mice (8 weeks old, 18-22 g) were purchased from The Jackson Laboratory (Bar Harbor, ME). Depending on different injury model, mice were either randomly divided into three groups: sham, SCI+heating pad, and SCI+Dex for LISA injury model, or were randomly divided into four groups: sham, SCI+heating pad, SCI+Dex, and SCI+Conventional hypothermia for Infinite Horizons (IH) model. […] All animal care, handling, and surgery were performed in accordance with the Guide for the Care and Use of Laboratory Animals (National Research Council) and the Guidelines of the Institutional Animal Care and Use Committee of Indiana University School of Medicine. Spinal cord contusion was made at the thoracic (T9) vertebral level. After avertin anesthesia, animals will be placed on a thermometer-controlled heating pad for the duration of recovery (except Dex and conventional hypothermia treated group). For LISA injury model, C57/6J mice were anesthetized. […] The T9 contusion injury was performed using a LISA impactor, where the injury level was determined using a laser sensor. After injury confirmation, the surgical area is sutured, the animal is hydrated and monitored for post-operative care, including analgesia and bladder expression. […]

Structures can show the parent of a compound that is named as a salt. Where two headings read alike, the source gives them in different places.

As to `Cc1cccc([C@H](C)c2cnc[nH]2)c1C` [Dex, dexmedetomidine hydrochloride], the “increased rate of Rotarod retention time vs. SCI only” value in experiment [1] is “around 75%”. The foot fall rate in experiment [2] (4 weeks post-injury) was found to be 17.3±5.1%; in experiment [2] (6 weeks post-injury), 12.9±3.6%. Besides, the “recovery of sensorimotor functions (Grid Walk)” value in experiment [2] (FIG. 3D, female) was “better recovery of sensorimotor functions”. In experiment [3], the “total area of spinal cord section, SCI+Dex vs. SCI” value is recorded as “no significant difference”. Besides, the “intensity of GFAP-positive signal compared to none-treatment SCI mice” value with GFAP was “decreased significantly”. Besides, the “duration of moderate hypothermia” value in experiment [4] was determined as 16 h.
